Measurements as given in patent US12383524B2, “Therapeutic compositions of undecylenic acid and arginine” (Wintermute Biomedical, Inc., priority 2018, dated 2025).

Assays:
[1] = system: methicillin-resistant Staphylococcus aureus (MRSA); assay: In vitro bactericidal assay against MRSA isolates (viable CFU/mL after treatment); settings: average of three MRSA isolates, 24 hours, varying CA concentration
Procedure: Note that efficacy is reported in terms of the viable bacterial concentration (in CFU/mL) remaining after 24 hours of treatment with the drug product (in compliance with CLSI guidelines).
In this example, bacteria (MRSA isolates) are put onto fresh plates and allowed to grow for 30 hours. A suspension inoculum is made from the plates (e.g., a 1 McFarland solution in sterile water), from which the turbidity may be optically read. A standard inoculum may then be cultured in media and 100 μL of that solution combined with 100 μL of drug product and grown at various dilutions for 16-20 hrs. Duplicates may then be examined (e.g., following pelleting at 7,000 RPM for 15 min, resuspended in PBS and serial dilutions plated and grown for 24 hrs.). Duplicate plates at multiple dilutions may then be imaged and colonies counted.
For example, in each of these examples in FIG. 20, the fatty acid to amino acid in the compositions was at a ratio of about 1:0.76 (fatty acid:amino acid) by weight when diluted and used to treat MRSA. GS-1, GS-2 and GS-3 all had fatty acid:amino acid aqueous mixtures with approximately 32% w/w of total active pharmaceutical ingredients (APIs), which were diluted at 1:128 in water, resulting in a concentration of about 0.25% w/w total APIs. […]

[2] = system: bacteria; assay: Variation of the amino acid combined with UCA, bactericidal effect; format: cell-based
Source text: Thus in some variations, the amino acid may be limited to a charged (and particularly the positively charged) amino acids, such as amino acid having an electrically charged basic side chain.

Row | SMILES | effect of CA on efficacy of the UCA and LARG composition [1] | bactericidal effect when used as the amino acid with the fatty acid [2]
1 | CCCCCCCCCCCCCCCCO [CA, cetyl alcohol] | clear inhibitory effect | –
2 | N=C(N)NCCC[C@@H](N)C(=O)O [D-Arginine] | – | ineffective
